# Experimental data published in patent US20210161897A1, “EPIDERMAL GROWTH FACTOR RECEPTOR TYROSINE KINASE INHIBITORS FOR THE TREATMENT OF CANCER” (AstraZeneca AB, priority 2019, published 2021).
# Test system: PC9 xenograft tumours
# Experiment: PC9 xenograft antitumour efficacy and regrowth
# Assay type: in vivo, female SCID mice
# Description: PC9 xenograft tumours were established by subcutaneous implantation of 5×10^6 cells per animal, in 100 μl of cell suspension including 50% matrigel, into the dorsal left flank of female SCID mice. All mice were older than 6 weeks at the time of cell implant. Tumor growth was monitored twice weekly by bilateral calliper measurements and tumour volume calculated using elliptical formula (pi/6×width×width×length).
# Mice were randomized into vehicle or treatment groups with approximate mean start size of 0.2 cm3. Randomization for animal studies was based on initial tumour volumes to ensure equal distribution across groups. Mice were dosed daily by oral gavage with vehicle or 25 mg/kg osimertinib or once weekly by intravenous with 25 mg/kg AZD2811 or with the combination of osimertinib and AZD2811. Note that all treatments were stopped on day 28. However, tumour growth was followed for approximately 200 additional days.
structure (smiles),measurement,setting,value
"C=CC(=O)Nc1cc(Nc2nccc(-c3cn(C)c4ccccc34)n2)c(OC)cc1N(C)CCN(C)C [osimertinib, N-(2-{2-dimethylaminoethyl-methylamino}-4-methoxy-5-{[4-(1-methylindol-3-yl)pyrimidin-2-yl]amino}phenyl) prop-2-enamide]",tumour shrinkage during 4-week treatment,"monotherapy, 25 mg/kg, osimertinib daily oral, AZD2811 once weekly intravenous",complete shrinkage
same,time at which tumour regrowth was observed,"osimertinib 25 mg/kg daily oral gavage for 28 days, then treatment stopped",around 80 days
